In article PMC2922868 (ACS medicinal chemistry letters, 2010):
“Also recorded” adds a separate entry of the source. Where two headings read alike, the source gives them in different places.

Columns and labels:
Hsp90-IP6K2 interaction [1] = conditions: ref [17], cited from earlier work
Hsp90-IP6K2 pathway = conditions: ref [17]; cited from earlier work
Hsp90-FKBP52 interaction = conditions: not tested in this paper; reference not given; cited from earlier work
[2] = system: N-middle domain of Hsc82 (yeast variant of Hsp90); assay: pull-down with San A-amide-Biotin, Hsc82 N-middle construct; assay type: binding; conditions: San A-amide-Biotin as probe, His-fusion, Figure 5 lane 5
[3] = ref [6], [8]; cited from earlier work
Hsp90 = Hsp90 ATPase activity / ATP hydrolysis; assay type: biochemical; conditions: Supplementary data, Figure S7
Hsp90-IP6K2 interaction [4] = assay: in vitro pull down binding assay, Hsp90-IP6K2
[5] = system: full length Hsc82 (yeast variant of Hsp90); assay: pull-down with San A-amide-Biotin, Hsc82 full length; assay type: binding; conditions: San A-amide-Biotin as probe, His-fusion, Figure 5 lane 6
[6] = system: N-terminal domain of Hsc82 (yeast variant of Hsp90); assay: pull-down with San A-amide-Biotin, Hsc82 N-terminal domain; assay type: binding; conditions: San A-amide-Biotin as probe, His-fusion, Figure 5 lane 2
[7] = system: IP6K2 over expressed (K2-O/E) HEK 293 cells; assay: cell survival, IP6K2 over expressed vs wild-type HEK 293 cells; assay type: cell-based; conditions: 48 hours, CCK-8
[8] = system: C-terminal domain of Hsc82 (yeast variant of Hsp90); assay: pull-down with San A-amide-Biotin, Hsc82 C-terminal domain; assay type: binding; conditions: San A-amide-Biotin as probe, His-fusion, Figure 5 lane 4
[9] = system: middle domain of Hsc82 (yeast variant of Hsp90); assay type: binding; conditions: pull-down, San A-amide-Biotin as probe; His-fusion; Figure 5 lane 3

Compound	IP6K2 binding inhibition at 10 μM (in words) (Hsp90-IP6K2 interaction [1]; 10 μM)	effect on IP6K2 binding to Hsp90 (in words) (Hsp90-IP6K2 interaction [1])	effect on IP6K2 binding to Hsp90 (in words) (Hsp90-IP6K2 interaction [1]; listed as 17AAG)	effect on Hsp90-IP6K2 pathway (in words) (Hsp90-IP6K2 pathway)	effect on Hsp90-FKBP binding (in words) (Hsp90-FKBP52 interaction)	EC50 (Hsp90-IP6K2 interaction [1]; read-out: EC50, inhibition of IP6K2 binding to Hsp90) [µM]	binding to N-middle construct [2]	apoptosis (in words) [3]	effect on ATP hydrolysis by Hsp90 (Hsp90)	effectiveness relative to novobiocin, IP6K2 binding (in words) (Hsp90-IP6K2 interaction [4]; EC50 ~1 μM vs ~100 μM for novobiocin (ref [17]))	inhibition of IP6K2 binding to Hsp90 (in words) (Hsp90-IP6K2 interaction [4]; native Hsp90 from HeLa cells, His-IP6K2, 0-10 μM)	fold potency over Novobiocin at inhibiting C-terminal client proteins (Hsp90-IP6K2 interaction [4]; versus Novobiocin)	binding to full length Hsc82 [5]	binding to N-terminal domain [6]	fold change in survival difference, with drug vs no drug (3% vs 27% change) ([7]; 25 μM San A-amide, K2-O/E vs wild type HEK 293)	change in cell survival, K2-O/E compared to wild type (control) ([7]; 25 μM San A-amide, change without drug 3%) [%]	cell survival in K2-O/E compared to wild type (in words) ([7]; 25 μM)	induction of cell death through the Hsp90-IP6K2 pathway (in words) ([7]; 25 μM, HEK 293)	binding to C-terminal domain [8]	binding to middle domain [9]
C=CCNC1=C2C[C@@H](C)C[C@H](OC)[C@H](O)[C@@H](C)/C=C(\C)[C@H](OC(N)=O)[C@@H](OC)/C=C\C=C(/C)C(=O)NC(=CC1=O)C2=O [17-AAG, 17-allylamino, 17-demethoxygeldanamycin]	not inhibited	did not affect the binding of IP6K2	FKBP and IP6K2 binding to Hsp90 are not affected	did not affect this pathway	–	–	–	–	–	–	–	–	–	–	–	–	–	–	–	–
CO[C@@H]1[C@@H](OC(N)=O)[C@@H](O)[C@H](Oc2ccc3c(O)c(NC(=O)c4ccc(O)c(CC=C(C)C)c4)c(=O)oc3c2C)OC1(C)C [novobiocin]	–	only disrupts Hsp90-IP6K2	–	–	not FKBP binding	~100	–	–	–	–	–	–	–	–	–	–	–	–	–	–
Sansalvamide A-amide [San A-amide]	–	–	–	–	–	–	optimal affinity; also recorded: specifically binds to the N-middle domain of Hsp90	shown to cause apoptosis	no affect on ATP hydrolysis	significantly more effective binding inhibitor	able to block both Hsp90-IP6K2 and Hsp90-FKBP interactions; also recorded: blocks the binding of Hsp90 to a client protein; also recorded: inhibits the binding of the C-terminal interacting protein, IP6K2, to Hsp90	over 100 fold	bound to full length Hsp90	only a marginally detectable interaction	~ 9 fold	27	cell survival is substantially decreased in cells that over-express IP6K2 compared to wild type cells	induces cell death, at least in part, through the Hsp90-IP6K2 pathway	no affinity	partial affinity
